In patent publication US10426774B2, “Methods of treating cancer having an active Wnt/β-catenin pathway” (DANA-FARBER CANCER INSTITUTE, INC., priority 2012, dated 2019):

How the values were obtained:
zebrafish embryos = assay: Zebrafish embryo gut formation (IFABP expression / gut reporter); format: in vivo; details: morpholino microinjection 50 μM; gut reporter fluorescence 4 dpf, IFABP in situ hybridization 3 dpf
Experimental: FIG. 5: YES1 is essential for tumorgenicity of β-catenin-active cells. (A) V5 immune complexes were isolated from HuTu80 or SW480 cells stably expressing WT or Y357F V5-epitope-tagged YAP1 or control V5-LacZ Immune complexes were analyzed by immunoblotting with a phosphotyrosine antibody. (B) HuTu80 or SW480 cells stably expressing V5-epitope-tagged WT YAP1 were treated for 6 hr with 0.5 or 2 μM of dasatinib. V5 immune complexes were analyzed by immunoblotting with a phosphotyrosine antibody. (C) Transgenic IFABP:RFP zebrafish were injected with 50 μM of YAP1- or YES1-specific morpholinos. Red fluorescence was assessed 4 dpf, or IFABP expression was assessed 3 dpf by using whole-mount in situ hybridization with an IFABP-specific probe. (D) Embryos were exposed to 2 μM of dasatinib at 2 dpf, and IFABP expression was assessed after 24 hr by using whole-mount in situ hybridization.
Zebrafish were maintained according to institutional animal care and use committee (IACUC-BIDMC) protocols. Validated morpholinos (MO) (Gene-Tools, PhiloMath, Oreg.) designed against the ATG site of YES1 (5′-CC […]-3′, SEQ ID NO: 1) (Jopling and Hertog, 2007) or YAP1 (5′-[…]-3′, SEQ ID NO: 2) (Skouloudaki et al., 2009) were injected into WT or gut reporter (Tg(fabp2:RFP)as200) zebrafish at the one-cell stage. […]

KM12 = assay: Small-molecule inhibitor proliferation assay (crystal violet), KM12; format: cell-based; details: Homo sapiens, 168 h, β-catenin pathway Non-active, proliferation 7 d post treatment, read-out: IC50 Dasatinib
Experimental: (§1) (A) The indicated cancer cell lines were treated with various concentrations of dasatinib and proliferation was measured 7 days post treatment. (B) HCT116 or (C) HuTu80 cells stably expressing a dastinib resistant YES1 (T348I) or SRC (T341I) were treated as in (A). (D) Representative picture of HCT116 cells treated as in (B).
(§2) 6000 cell/well were plated in 24-well plates and the indicated doses of dasatinib (Selleck, Houston) or vehicle was added 24 hr later. Proliferation was measured after 7 d by crystal violet staining.

Colo205 = assay: Small-molecule inhibitor proliferation assay (crystal violet), Colo205; format: cell-based; details: Homo sapiens, COLO 205, 168 h, β-catenin pathway active, proliferation 7 d post treatment, read-out: IC50 Dasatinib
Experimental: as §1, §2

WT organoids = assay: Three-dimensional primary colon organoid culture, WT; format: cell-based, mouse; details: WT organoids treated with dasatinib
Experimental: (§3) (A) Representative images of colon organoids derived from WT or APC null mice treated for 6 days with 100 nM of dasatinib. (B) Quantification of results in (A). Error bars represent SD from four replicates. Blank denotes wells where no organoids were added. (C) WT or AXIN1 mutant (Masterblind) zebrafish were treated with 2 μM of dasatinib from 6-8 dpf. Arrow indicates developing gut. (D) H&E staining of zebrafish in (C) width of epithelium is noted by bars. (E) The number of epithelial cells/section was measured in WT or AXIN1 mutant zebrafish treated with 2 μM of dasatinib or DMSO. Error bars represent the SD from 20 different sections from five treated fish. p value was calculated by using Student's t test.
(§4) Colons from Apc flox/flox; villin-CreER mice were dissected lengthwise and washed in cold PBS. 0.5-1 cm segment per dish was minced extensively on ice and embedded in a 3D collagen gel by using a double-dish culture system (Ootani et al., 2009). Tamoxifen (Sigma, 2 μM in ethanol) or vehicle (ethanol) was applied on the day of initial plating for 7 days to generate APC null or WT organoids.

HCT116 = assay: Small-molecule inhibitor proliferation assay (crystal violet), HCT116; format: cell-based; details: Homo sapiens, HCT-116, 168 h, β-catenin pathway active, proliferation 7 d post treatment, read-out: IC50 Dasatinib
Experimental: as §1, §2

HuTu80 = assay: Small-molecule inhibitor proliferation assay (crystal violet), HuTu80; format: cell-based; details: Homo sapiens, 168 h, β-catenin pathway active, proliferation 7 d post treatment, read-out: IC50 Dasatinib
Experimental: as §1, §2

APC null organoids = assay: Three-dimensional primary colon organoid culture, APC null; format: cell-based, mouse; details: 50 nM
Experimental: as §3, with “(A) Representative images of colon organoids derived from WT or APC null mice treated for 6 days with 100 nM of dasatinib.” left out
as §4

RKO = assay: Small-molecule inhibitor proliferation assay (crystal violet), RKO; format: cell-based; details: Homo sapiens, 168 h, β-catenin pathway Non-active, proliferation 7 d post treatment, read-out: IC50 Dasatinib
Experimental: as §1, §2

DLD1 = assay: Small-molecule inhibitor proliferation assay (crystal violet), DLD1; format: cell-based; details: Homo sapiens, DLD-1, 168 h, β-catenin pathway active, proliferation 7 d post treatment, read-out: IC50 Dasatinib
Experimental: as §1, §2

HT55 = assay: Small-molecule inhibitor proliferation assay (crystal violet), HT55; format: cell-based; details: Homo sapiens, 168 h, β-catenin pathway active, proliferation 7 d post treatment, read-out: IC50 Dasatinib
Experimental: as §1, §2

SW480 = assay: Small-molecule inhibitor proliferation assay (crystal violet), SW480; format: cell-based; details: Homo sapiens, 168 h, β-catenin pathway active, proliferation 7 d post treatment, read-out: IC50 Dasatinib
Experimental: as §1, §2

IC50 (Colo205)	IC50 (HCT116)	IC50 (DLD1)	IC50 (SW480)	Compound	gut formation (zebrafish embryos)	IC50 (KM12)	growth inhibition of WT organoids (WT organoids)	IC50 (HuTu80)	decrease in growth of APC null organoids (APC null organoids)	IC50 (RKO)	IC50 (HT55)
				5′-AGCAACATTAACAACTCACTTTAGG-3′ (morpholino backbone, further chemistry not given here) [YAP1 morpholino]	dramatically inhibited						
80 nM	68 nM	125 nM	50 nM	Cc1nc(Nc2ncc(C(=O)Nc3c(C)cccc3Cl)s2)cc(N2CCN(CCO)CC2)n1 [dasatinib]		> 800 nM	5%	70 nM	70%	> 800 nM	70 nM
				5′-CC TCTTTACTCTTGACACAGCCCAT-3′ (CCTCTTTACTCTTGACACAGCCCAT; morpholino backbone, further chemistry not given here) [YES1 morpholino]	dramatically inhibited						
